Laboratory results as given in patent US7943338B2, “Autoimmune conditions and NADPH oxidase defects” (Arexis AB, priority 2002, dated 2011).
Entries after “also recorded” stand apart in the source; their conditions may differ.

How the values were obtained:
[1] = in vivo; cited from earlier work
[2] = Lymph node distribution of 14C-hexadecane after hexadecene at day -5; assay type: in vivo, Rat (Rattus norvegicus); settings: hexadecene 0, 50, 100 or 200 μL day -5; 14C-hexadecane day 0; day 10
Experimental: An experiment was performed to determine if oils compete for available space in the lymph nodes and if such a competition was the reason for the preventive effects of pre-treatment with hexadecene and undecane. At day −5, DA rats were injected with one of the following amounts of hexadecene: 0 μL, 50 μL, 100 μL, or 200 μL. At day 0, all rats were injected intradermally with 14C-hexadecane at the base of the tail. At day 10, the rats were sacrificed and the lymph nodes were collected and placed in PBS, homogenized, and frozen. 1 mL of the homogenate was then transferred to Ready Safe (Beckman) and analysed in a β-counter (Beckman).

DA rats = experiment: Treatment of hexadecane-induced arthritis with hexadecene; assay type: in vivo, Rat (Rattus norvegicus)
Experimental: Groups of DA rats were injected i.d. at the base of the tail as follows: • Hexadecane 200 μL day 0; • Hexadecene 200 μL day 0; • Hexadecene 200 μL day −5, Hexadecane 200 μL day 0; • Olive oil 200 μL day −5, Hexadecane 200 μL day 0; • Hexadecene 200 μL day +5, Hexadecane 200 μL day 0; and • Olive oil day 200 μL +5, Hexadecane 200 μL day 0.
The rats were scored as indicated above. Olive oil was used as a control.

## hexadecene
[1]
  arthritis induction: do not
[2]
  amount of hexadecane in draining lymph nodes: not affected
DA rats; 200 μL i.d. day 0 alone, FIG. 12, p<0.05 hexadecane vs hexadecene
  arthritis-inducing capacity: does not
DA rats; hexadecene 200 μL i.d. day -5 or day +5, hexadecane day 0
  development of hexadecane induced arthritis: None of the rats treated with hexadecene developed arthritis; also recorded: None of the rats treated with hexadecene showed any symptoms of arthritis
DA rats; hexadecene day -5 and day +5, p<0.05
  difference in arthritis scores vs control rats: significant
